This note sets out measurements from BindingDB's records for doi:10.1016/j.bmcl.2009.03.043 (Vertex Pharmaceuticals, 2009).

The structures appear in SMILES notation. pKi: −log10 of the molar value. Some results are limits rather than exact numbers.

The target of assay [1] is Mitogen-activated protein kinase 10 (Homo sapiens, UniProt P53779). Put plainly: Inhibition of JNK3 by spectrophotometric coupled enzyme assay.
Assay [2] has as its target Tyrosine-protein kinase SYK (Homo sapiens) (UniProt P43405). Briefly: Inhibition of SYK.
Assay [3] has as its target 3-phosphoinositide-dependent protein kinase 1 (Homo sapiens) (UniProt O15530). Briefly: Inhibition of PDK1.

Mitogen-activated protein kinase 10, sequence (P53779 whole entry): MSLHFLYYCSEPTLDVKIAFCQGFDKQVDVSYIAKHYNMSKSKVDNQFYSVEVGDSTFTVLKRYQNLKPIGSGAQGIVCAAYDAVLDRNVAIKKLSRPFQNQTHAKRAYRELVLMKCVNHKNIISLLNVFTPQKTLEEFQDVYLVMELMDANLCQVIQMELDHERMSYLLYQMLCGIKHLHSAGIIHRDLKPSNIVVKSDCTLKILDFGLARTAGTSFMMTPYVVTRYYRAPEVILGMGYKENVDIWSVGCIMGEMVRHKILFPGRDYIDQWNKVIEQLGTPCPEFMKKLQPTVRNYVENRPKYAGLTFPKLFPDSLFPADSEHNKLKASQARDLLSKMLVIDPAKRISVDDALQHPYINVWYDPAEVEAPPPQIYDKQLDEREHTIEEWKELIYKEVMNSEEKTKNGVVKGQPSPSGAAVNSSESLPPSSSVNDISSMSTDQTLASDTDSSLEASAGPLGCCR

As for `Cc1ccc2c(c1)C(N=O)C(=O)N2Cc1ccccc1` (configuration not stated) [1-benzyl-3-(hydroxyimino)-5-methylindolin-2-one], in assay [1], the pKi (as a rule, the negative decadic logarithm of the Ki, by convention in mol/L) is below 5.00.
With `Cc1ccc2c(c1)N(Cc1cc(F)cc3c1OCOC3)C(=O)C2N=O` (configuration not stated) [1-((6-fluoro-4H-benzo[d][1,3]dioxin-8-yl)methyl)-3-(hydroxyimino)-6-methylindolin-2-one], the pKi in assay [2] and in assay [3] was below 4.52 throughout.
In turn, `O=NC1C(=O)N(Cc2ccccc2[N+](=O)[O-])c2ccccc21` (configuration not stated) [3-(hydroxyimino)-1-(2-nitrobenzyl)indolin-2-one] showed a pKi in assay [1] below 5.00.
Same read-out and setting: as for `O=NC1C(=O)N(Cc2ccccc2)c2ccccc21` (configuration not stated) [1-benzyl-3-(hydroxyimino)indolin-2-one], the figure is below 5.00.
The same measure, in the same setting: the value for `O=NC1C(=O)N(Cc2ccccc2)c2ccc(F)cc21` (configuration not stated) [1-benzyl-5-fluoro-3-(hydroxyimino)indolin-2-one] was below 5.00.
Same read-out and setting: as for `Cc1cccc(CN2C(=O)C(N=O)c3cc(C)ccc32)c1` (configuration not stated) [3-(hydroxyimino)-5-methyl-1-(3-methylbenzyl)indolin-2-one], the figure is below 5.00.
